In PMC6680226, “Peptoid Efficacy against Polymicrobial Biofilms Determined by Using Propidium Monoazide‐Modified Quantitative PCR” (Chembiochem, 2016):
“Also recorded” adds a separate entry of the source. Like-named read-outs stand apart in the source and are kept apart here.

Tests used:
HaCaT [1] = test: alamarBlue cytotoxicity assay, HaCaT keratinocytes; details: for ED50 HaCaT: alamarBlue viability, 2-100 μM from DMSO stock, 1 h with compound then 24 h incubation at 37 °C, fluorescence, triplicate on a minimum of two occasions; for Toxicity to HaCaT cells (in words): alamarBlue, up to 100 μM
Protocol: (§7) Peptoid cytotoxicity studies: All 18 peptoids were tested for cytotoxicity against HepG2 epithelial (Sigma–Aldrich) and HaCaT keratinocyte (ThermoFisher) cell lines, Cytotoxicity analyses were performed in Costar 96‐well plates (Thermo Fisher Scientific) with alamarBlue (Invitrogen/Thermo Fisher Scientific) for cell viability detection as described by the manufacturer. HepG2 and HaCaT cells were grown at 37 °C under CO2 (5 %) in DMEM (high glucose) supplemented with heat‐inactivated foetal bovine sera (FBS, 10 %; Biosera, Uckfield, UK) and penicillin/streptomycin (1 %). Cells were counted in a Neubauer Improved Haemocytometer. HepG2 or HaCaT cells were seeded 24 h prior to treatment in 96‐well plates (2×10^4 cells per well in 100 μL). After 24 h, cells were incubated in triplicate with a dilution series of compound (2–100 μM from 5 mM stock solutions in DMSO) in the medium (50 μL) for 1 h. An aliquot (40 μL) was removed from each well, before the addition of medium (90 μL) followed by incubation for 24 h (37 °C, 5 % CO2). Then, alamarBlue (10 μL) was added to each well before incubation (2 h for Hep G2, 1 h for HaCaT) prior to assessing cell viability in a fluorescent plate reader (Biotek, Winooski, VT; λ ex=560 nm, λ em=600 nm). All data were measured in triplicate on a minimum of two occasions.
(§8) Toxicity was determined using an alamarBlue® cytotoxicity assay.

HepG2 [2] = test: alamarBlue cytotoxicity assay, HepG2 cells; details: for ED50 HepG2: alamarBlue viability, 2-100 μM from DMSO stock, 1 h with compound then 24 h incubation at 37 °C, fluorescence, triplicate on a minimum of two occasions; for Toxicity to HepG2 cells (in words): alamarBlue, up to 100 μM
Protocol: as §7, §8

trypsin = format: in vitro ADME; details: trypsin 0.5 μg/mL, Tris·HCl 50 mM pH 7.8 with CaCl2 9 mM, 24 h; MALDI-TOF MS read-out
Protocol: Proteolytic stability studies: Peptoid stability was confirmed by comparing the tryptic digestion of 7 with LL‐37 (Innovagen AB, Lund, Sweden). Stock solutions (5 mg mL^−1) of 7 and LL‐37 were prepared, and samples (7.5 μL) were incubated with trypsin (0.5 μg mL^−1) and incubation buffer (37.5 μL, Tris⋅HCl (50 mM, pH 7.8) containing CaCl2 (9 mM)). After 0 h (for mass spectrometric verification) or 24 h, the reaction mixture was acidified by addition of TFA (10 %, 50 μL) to denature the enzyme and stop enzyme activity. The samples were air‐dried and then reconstituted in acetonitrile/water/TFA (50 μL, 40:59.5:0.5, v/v/v), and an aliquot (1 μL) was placed onto a stainless steel MALDI target. Samples were covered immediately with matrix (1 μL, α‐cyano‐4‐hydroxycinnamic acid (53 mM in acetonitrile/water/TFA, 70:29.98:0.02, v/v/v)). MALDI‐TOF MS was performed on a linear TOF Voyager DE‐mass spectrometer (PerSeptive Biosystems, Farmingham, MA, USA). The samples were analysed in positive detection mode, and internal mass calibration with known standards established the mass accuracy to ±0.1 %. Fifty laser scans were averaged for each sample, and variable laser intensity was used to ensure the most representative mass spectra for the wells.
4. Proteolytic Stability Study […]

[3] = system: E. coli (ATCC 29522) biofilm; test: Crystal violet assay, E. coli monospecies biofilm; format: cell-based, Escherichia coli; details: peptoid 100 μM, 24 h treatment of 4 h biofilm; n=3
Protocol: (§1) Microorganism strains and growth conditions: C. albicans (NCTC 3179) was subcultured aerobically on Sabouraud agar plates, prepared by using Sabouraud dextrose powder and agar (Oxoid, ThermoFisher) and propagated in yeast peptone dextrose broth. E. coli (ATCC 29522) and S. aureus (NCTC 6571) were grown on blood agar plates (Fanin, Dublin, Ireland) and propagated in brain heart infusion (BHI) broth (Oxoid, ThermoFisher).
(§2) Preparation and treatment of single‐species biofilms: Overnight cultures of C. albicans were washed and resuspended (1.0×10^6 cells per mL) in RPMI‐1640 (Sigma–Aldrich). Overnight cultures of S. aureus or E. coli were washed and resuspended (5.0×10^6 cells per mL) in BHI broth. Samples (100 μL) were added to microtitre plate wells (Thermo Fisher Scientific), and a biofilm was allowed to form for 4 h. Wells were washed with PBS (3×200 μL) to facilitate removal of planktonic cells, and the biofilms were then treated with 1–18 (100 μM in the appropriate medium). Plates were incubated for a further 24 h to allow biofilm maturation. After removal of planktonic cells by washing, biofilms were quantified by the crystal violet assay or by PMA‐qPCR.
(§3) Biofilm quantification by crystal violet assay: Washed biofilms were fixed with methanol (100 μL) for 10 min. Following removal of methanol, the wells were air dried and stained with crystal violet solution (Clin‐Tech, Guildford, UK) for 20 min at room temperature. Excess stain was removed by washing, then the plate was air‐dried and bound crystal violet was re‐solubilised in acetic acid (33 %, 160 μL) prior to reading at 570 nm in a GENios microtitre plate reader (Tecan, Zürich, Switzerland).

[4] = system: C. albicans monospecies biofilm; test: PMA-qPCR viable cell number, C. albicans monospecies biofilm; format: cell-based, Candida albicans; details: peptoid 100 μM, 24 h; n=3
Protocol: as §2
(§4) Biofilm quantification by PMA‐modified qPCR: In order to determine the bactericidal and fungicidal activity of peptoids against single‐species and polymicrobial biofilms, the biofilms were detached from the microtitre plate wells prior to quantification. The wells were washed as above, then BHI broth (100 μL) was added and the plate was sealed. Biofilm detachment was achieved by sonication for 5 min in an ultrasonic bath (Dawe, Hayes, Middlesex, UK). The remaining cells were then collected in BHI (80 μL). […]
(§5) Generation of standard curves for PMA‐qPCR: For quantification of C. albicans, S. aureus and E. coli in single‐species and polymicrobial biofilms, DNA standards were prepared by extraction of DNA from planktonic organisms with the microLYSIS‐Plus kit and purification with a DNeasy kit (Qiagen). DNA standards (10^1–10^6 cells) were used in PMA‐qPCR assays to generate standard curves from which the numbers of living organisms within the biofilms could be determined.

[5] = system: E. coli monospecies biofilm; test: PMA-qPCR viable cell number, E. coli monospecies biofilm; format: cell-based, Escherichia coli; details: peptoid 100 μM, 24 h; n=3
Protocol: as §2, §4, §5

[6] = system: C. albicans in polymicrobial biofilm with S. aureus; test: PMA-qPCR, C. albicans within C. albicans-S. aureus polymicrobial biofilm; format: cell-based, Candida albicans; details: peptoid 100 μM, 24 h; n=3
Protocol: (§6) Preparation and treatment of polymicrobial biofilms: Overnight cultures of C. albicans were prepared in microtitre plates as above, and allowed to adhere for 4 h to facilitate initial biofilm formation. Planktonic C. albicans cells were removed as above before the addition of S. aureus or E. coli (100 μL, 5.0×10^6 cells per mL). Bacteria were allowed to adhere to the C. albicans biofilms for 4 h to facilitate polymicrobial biofilm formation. Following a washing step, the biofilms were then treated with peptoid (10–100 μM), and incubated for a further 24 h to allow biofilm maturation. Wells were washed as above, and the polymicrobial biofilms were quantified by PMA‐modified qPCR.
as §4, §5

[7] = system: S. aureus in polymicrobial biofilm with C. albicans; test: PMA-qPCR, S. aureus within C. albicans-S. aureus polymicrobial biofilm; format: cell-based, Staphylococcus aureus; details: 24 h; for Reduction of cell numbers of S. aureus in mixed-species biofilm: peptoid 10 μM, PMA-qPCR
Protocol: as §6
Biofilm quantification by PMA‐modified qPCR: In order to determine the bactericidal and fungicidal activity of peptoids against single‐species and polymicrobial biofilms, the biofilms were detached from the microtitre plate wells prior to quantification. The wells were washed as above, then BHI broth (100 μL) was added and the plate was sealed. Biofilm detachment was achieved by sonication for 5 min in an ultrasonic bath (Dawe, Hayes, Middlesex, UK). The remaining cells were then collected in BHI (80 μL). PMA (20 μL, 2 mM in broth;47 Biotium, Fremont, CA) was added to the biofilm suspensions […] and incubated (37 °C, 5 min) prior to photoactivation with a broad‐spectrum LED flood light (60 LED, 0.1 W) placed 15 cm from the tubes (mixed by inversion during the 20 min photoactivation step).48 DNA was extracted by using a microLYSIS‐Plus kit (Microzone, Haywards Heath, UK), and qPCR was performed in a Mx3005P qPCR System (Agilent Technologies).49, 50, 51 See the Tables in the Supporting Information.
as §5

[8] = system: C. albicans (NCTC 3179) biofilm; test: Crystal violet assay, C. albicans monospecies biofilm; format: cell-based, Candida albicans; details: peptoid 100 μM, 24 h treatment of 4 h biofilm; n=3
Protocol: as §1, §2, §3

[9] = system: S. aureus (NCTC 6571) biofilm; test: Crystal violet assay, S. aureus monospecies biofilm; format: cell-based, Staphylococcus aureus; details: peptoid 100 μM, 24 h treatment of 4 h biofilm; n=3
Protocol: as §1, §2, §3

HepG2 [10] = system: HepG2
Protocol: as §7, §8

HaCaT [11] = system: HaCaT
Protocol: as §7, §8

| Molecule | ED50 HaCaT (HaCaT [1]) [µM] | ED50 HepG2 (HepG2 [2]) [µM] | other results |
| --- | --- | --- | --- |
| (NaeNpheNphe)2 [Peptoid 9] | > 100 | > 100 |  |
| (NaeNspeNspe)2 [Peptoid 12] | > 100 | > 100 |  |
| (NLysNspeNspe)2 [Peptoid 6] | > 100 | > 100 |  |
| (NaeNpheNphe)3 [Peptoid 8] | > 100 | > 100 |  |
| CC[C@H](C)[C@H](NC(=O)[C@H](CCCCN)NC(=O)[C@H](CCC(=O)O)NC(=O)[C@H](CCCCN)NC(=O)[C@H](CO)NC(=O)[C@H](CCCCN)NC(=O)[C@H](CCCNC(=N)N)NC(=O)[C@H](Cc1ccccc1)NC(=O)[C@H](Cc1ccccc1)NC(=O)[C@H](CC(=O)O)NC(=O)CNC(=O)[C@H](CC(C)C)NC(=O)[C@@H](N)CC(C)C)C(=O)NCC(=O)N[C@@H](CCCCN)C(=O)N[C@@H](CCC(=O)O)C(=O)N[C@@H](Cc1ccccc1)C(=O)N[C@@H](CCCCN)C(=O)N[C@@H](CCCNC(=N)N)C(=O)N[C@H](C(=O)N[C@H](C(=O)N[C@@H](CCC(N)=O)C(=O)N[C@@H](CCCNC(=N)N)C(=O)N[C@H](C(=O)N[C@@H](CCCCN)C(=O)N[C@@H](CC(=O)O)C(=O)N[C@@H](Cc1ccccc1)C(=O)N[C@@H](CC(C)C)C(=O)N[C@@H](CCCNC(=N)N)C(=O)N[C@@H](CC(N)=O)C(=O)N[C@@H](CC(C)C)C(=O)N[C@H](C(=O)N1CCC[C@H]1C(=O)N[C@@H](CCCNC(=N)N)C(=O)N[C@H](C(=O)N[C@@H](CCC(=O)O)C(=O)N[C@@H](CO)C(=O)O)[C@@H](C)O)C(C)C)[C@@H](C)CC)C(C)C)[C@@H](C)CC [LL‐37] |  |  | Degradation after treatment with trypsin (trypsin): degraded to peptide fragments |
| (NahNspeNspe)4 [Peptoid 16] | 23 ± 1 | 41 ± 1 |  |
| (NaeNpheNphe)4 [Peptoid 7] | > 100 | > 100 | Efficacy against E. coli monospecies biofilm (biomass, crystal violet) [3]: amongst the most efficacious; Reduction in viable cell number, C. albicans monospecies biofilm (PMA-qPCR) [4]: significant reduction in cell number; Reduction in viable cell number, E. coli monospecies biofilm (PMA-qPCR) [5]: significant reduction in cell number; Toxicity to HaCaT cells (in words) (HaCaT [1]): negligible toxicity; Reduction in C. albicans cell number in mixed biofilm with S. aureus (PMA-qPCR) [6]: the greatest reduction; Reduction of cell numbers of S. aureus in mixed-species biofilm [7]: ~100%; Toxicity to HepG2 cells (in words) (HepG2 [2]): negligible toxicity; Efficacy against C. albicans monospecies biofilm (biomass, crystal violet) [8]: amongst the most efficacious; Efficacy against S. aureus monospecies biofilm (biomass, crystal violet) [9]: amongst the most efficacious |
| (NaeNspeNspe)4 [Peptoid 10] | 26 ± 2 | 41 ± 2 |  |
| (NLysNpheNphe)2 [Peptoid 3] | > 100 | > 100 |  |
| (NahNpheNphe)4 [Peptoid 13] | > 100 | > 100 |  |
| (NaeNspeNspe)3 [Peptoid 11] | > 100 | > 100 |  |
| (NLysNspeNspe)4 [Peptoid 4] |  |  | ED50 HepG2 (HepG2 [10]): 29 ± 1 µM; ED50 HaCaT (HaCaT [11]): 20 ± 1 µM |
| (NLysNspeNspe)3 [Peptoid 5] | > 100 | > 100 | Efficacy against E. coli monospecies biofilm (biomass, crystal violet) [3]: amongst the most efficacious; Reduction in viable cell number, C. albicans monospecies biofilm (PMA-qPCR) [4]: significant reduction in cell number; also recorded: the greatest reduction in cell number; Reduction in viable cell number, E. coli monospecies biofilm (PMA-qPCR) [5]: significant reduction in cell number; Toxicity to HaCaT cells (in words) (HaCaT [1]): negligible toxicity; Reduction of cell numbers of S. aureus in mixed-species biofilm [7]: ~100%; Reduction in S. aureus cell number in mixed biofilm with C. albicans (PMA-qPCR) ([7]; peptoid 100 μM, n=3): better able to reduce the cell count; Toxicity to HepG2 cells (in words) (HepG2 [2]): negligible toxicity; Efficacy against C. albicans monospecies biofilm (biomass, crystal violet) [8]: amongst the most efficacious; Efficacy against S. aureus monospecies biofilm (biomass, crystal violet) [9]: amongst the most efficacious |
| (NahNpheNphe)3 [Peptoid 14] | > 100 | > 100 |  |
| (NahNspeNspe)2 [Peptoid 18] | > 100 | > 100 |  |
| (NLysNpheNphe)4 [Peptoid 1] | 36 ± 1 | > 100 |  |
| (NLysNpheNphe)3 [Peptoid 2] | > 100 | > 100 |  |
| (NahNpheNphe)2 [Peptoid 15] | > 100 | > 100 |  |
